From ChEMBL document CHEMBL5620387, “Discovery of 4'-trifluoromethylchalcones as novel, potent and selective hCYP1B1 inhibitors without concomitant AhR activation” (Eur J Med Chem, 2023)

Tests used:
Cytochrome P450 1B1 [1] = molecular target: T1, Cytochrome P450 1B1 (Homo sapiens, UniProt Q16678); assay: Inhibition of human recombinant CYP1B1 assessed as fluorescence of resorufin
T1 sequence (Q16678 whole entry): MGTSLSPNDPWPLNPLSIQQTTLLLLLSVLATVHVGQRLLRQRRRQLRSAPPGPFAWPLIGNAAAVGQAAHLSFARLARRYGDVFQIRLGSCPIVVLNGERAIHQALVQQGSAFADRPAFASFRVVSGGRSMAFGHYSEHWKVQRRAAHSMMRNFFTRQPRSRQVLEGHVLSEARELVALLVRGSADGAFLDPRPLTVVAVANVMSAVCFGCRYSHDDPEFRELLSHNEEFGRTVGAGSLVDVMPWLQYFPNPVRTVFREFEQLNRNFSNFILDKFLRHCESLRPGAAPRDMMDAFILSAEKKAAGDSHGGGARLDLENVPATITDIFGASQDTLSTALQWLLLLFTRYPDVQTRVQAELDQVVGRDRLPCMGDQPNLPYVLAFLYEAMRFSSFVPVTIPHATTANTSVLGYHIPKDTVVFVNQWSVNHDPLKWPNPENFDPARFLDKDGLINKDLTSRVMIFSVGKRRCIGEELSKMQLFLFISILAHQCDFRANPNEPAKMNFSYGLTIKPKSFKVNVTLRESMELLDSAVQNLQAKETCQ

[2] = molecular target: T2, Aryl hydrocarbon receptor (Homo sapiens, UniProt P35869); assay: Agonist activity at aryl hydrocarbon receptor (unknown origin) expressed in HEK293T cells assessed as luciferase activity at 10 uM measured after 24 hrs; assay type: toxicity, cell-based
T2 sequence (P35869 whole entry): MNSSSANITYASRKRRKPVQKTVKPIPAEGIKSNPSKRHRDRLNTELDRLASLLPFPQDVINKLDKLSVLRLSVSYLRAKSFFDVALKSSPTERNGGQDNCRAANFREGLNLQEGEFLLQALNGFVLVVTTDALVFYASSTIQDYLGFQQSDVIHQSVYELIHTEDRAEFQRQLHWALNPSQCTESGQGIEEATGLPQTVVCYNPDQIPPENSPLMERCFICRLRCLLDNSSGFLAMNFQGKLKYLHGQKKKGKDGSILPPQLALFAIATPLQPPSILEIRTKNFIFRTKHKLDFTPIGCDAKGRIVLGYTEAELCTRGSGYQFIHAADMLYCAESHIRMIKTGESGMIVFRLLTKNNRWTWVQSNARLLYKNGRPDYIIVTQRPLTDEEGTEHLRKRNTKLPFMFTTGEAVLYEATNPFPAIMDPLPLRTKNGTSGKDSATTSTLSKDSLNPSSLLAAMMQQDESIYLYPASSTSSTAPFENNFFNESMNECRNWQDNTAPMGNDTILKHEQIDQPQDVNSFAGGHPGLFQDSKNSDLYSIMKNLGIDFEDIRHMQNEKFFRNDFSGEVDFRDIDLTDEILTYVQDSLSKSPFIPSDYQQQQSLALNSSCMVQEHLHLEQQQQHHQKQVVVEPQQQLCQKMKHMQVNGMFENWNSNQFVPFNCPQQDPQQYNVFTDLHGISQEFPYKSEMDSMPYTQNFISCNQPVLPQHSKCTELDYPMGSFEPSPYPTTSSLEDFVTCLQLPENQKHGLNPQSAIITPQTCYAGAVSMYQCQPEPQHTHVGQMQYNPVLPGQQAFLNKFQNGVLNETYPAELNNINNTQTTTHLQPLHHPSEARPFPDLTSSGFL

Cytochrome P450 1A2 [3] = molecular target: T3, Cytochrome P450 1A2 (Homo sapiens, UniProt P05177); assay: Inhibition of human recombinant CYP1A2 assessed as fluorescence of resorufin; assay type: ADME
T3 sequence (P05177 whole entry): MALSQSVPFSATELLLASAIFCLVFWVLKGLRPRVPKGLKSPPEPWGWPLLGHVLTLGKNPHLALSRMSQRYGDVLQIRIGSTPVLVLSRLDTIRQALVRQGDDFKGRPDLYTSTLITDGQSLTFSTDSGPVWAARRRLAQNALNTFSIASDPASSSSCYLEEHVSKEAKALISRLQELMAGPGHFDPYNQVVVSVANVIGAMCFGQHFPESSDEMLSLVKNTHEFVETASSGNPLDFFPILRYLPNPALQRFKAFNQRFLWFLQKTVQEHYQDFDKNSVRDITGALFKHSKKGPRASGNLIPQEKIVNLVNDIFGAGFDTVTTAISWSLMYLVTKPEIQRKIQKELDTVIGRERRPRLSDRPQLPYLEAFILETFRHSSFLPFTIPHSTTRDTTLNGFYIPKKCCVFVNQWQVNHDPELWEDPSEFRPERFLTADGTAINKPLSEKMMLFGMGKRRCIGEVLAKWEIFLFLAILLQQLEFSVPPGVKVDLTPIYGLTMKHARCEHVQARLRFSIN

[4] = Metabolic stability in human liver microsomes assessed as half life measured after 60 mins by LC-UV analysis; assay type: ADME, Microsome
Cytochrome P450 2A6 = molecular target: T4, Cytochrome P450 2A6 (Homo sapiens, UniProt P11509); assay: Inhibition of human CYP2A6 in human liver microsomes by LC-MS/MS analysis; assay type: ADME, Microsome
T4 sequence (P11509 whole entry): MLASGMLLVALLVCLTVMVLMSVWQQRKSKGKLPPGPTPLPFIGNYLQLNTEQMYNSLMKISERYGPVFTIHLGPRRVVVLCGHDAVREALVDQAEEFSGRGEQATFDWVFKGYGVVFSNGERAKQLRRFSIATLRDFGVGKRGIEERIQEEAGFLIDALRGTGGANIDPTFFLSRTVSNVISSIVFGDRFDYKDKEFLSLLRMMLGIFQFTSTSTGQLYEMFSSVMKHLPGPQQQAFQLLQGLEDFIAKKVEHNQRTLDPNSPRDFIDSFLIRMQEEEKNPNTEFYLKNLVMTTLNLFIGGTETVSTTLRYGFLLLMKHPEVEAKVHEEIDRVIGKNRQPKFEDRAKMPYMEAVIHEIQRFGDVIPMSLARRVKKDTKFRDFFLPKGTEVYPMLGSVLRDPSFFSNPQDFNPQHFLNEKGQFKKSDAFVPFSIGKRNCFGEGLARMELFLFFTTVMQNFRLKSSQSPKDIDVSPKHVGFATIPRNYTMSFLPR

[5] = molecular target: T2, Aryl hydrocarbon receptor; assay: Antagonist activity at aryl hydrocarbon receptor (unknown origin) expressed in HEK293T cells assessed as luciferase activity at 10 uM measured after 24 hrs; assay type: toxicity, cell-based
Cytochrome P450 2C19 = Cytochrome P450 2C19 (Homo sapiens, UniProt P33261); assay: Inhibition of human CYP2C19 in human liver microsomes by LC-MS/MS analysis; assay type: ADME, Microsome
[6] = Metabolic stability in human liver microsomes assessed as relative remaining concentration measured after 60 mins by LC-UV analysis; assay type: ADME, Microsome; conditions: read-out: INH
Cytochrome P450 2C8 = molecular target: T5, Cytochrome P450 2C8 (Homo sapiens, UniProt P10632); assay: Inhibition of human CYP2C8 in human liver microsomes by LC-MS/MS analysis; assay type: ADME, Microsome
T5 sequence (P10632 whole entry): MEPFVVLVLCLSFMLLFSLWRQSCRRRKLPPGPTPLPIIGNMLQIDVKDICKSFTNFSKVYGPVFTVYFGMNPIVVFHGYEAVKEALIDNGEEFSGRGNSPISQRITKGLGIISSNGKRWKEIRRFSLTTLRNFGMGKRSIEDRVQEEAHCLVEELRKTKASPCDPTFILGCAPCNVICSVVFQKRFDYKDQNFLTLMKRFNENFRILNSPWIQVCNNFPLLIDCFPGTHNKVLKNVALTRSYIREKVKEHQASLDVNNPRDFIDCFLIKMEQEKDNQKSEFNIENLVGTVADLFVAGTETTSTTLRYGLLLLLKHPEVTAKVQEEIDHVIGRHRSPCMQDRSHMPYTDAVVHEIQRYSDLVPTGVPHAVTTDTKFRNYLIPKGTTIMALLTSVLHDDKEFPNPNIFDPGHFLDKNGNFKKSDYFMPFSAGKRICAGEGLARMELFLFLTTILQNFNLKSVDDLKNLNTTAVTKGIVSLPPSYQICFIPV

Cytochrome P450 3A4 = Cytochrome P450 3A4 (Homo sapiens, UniProt P08684); assay: Inhibition of human CYP3A4 measured after 3 mins incubation by fluorescence assay; assay type: ADME
Cytochrome P450 2E1 = Cytochrome P450 2E1 (Homo sapiens, UniProt P05181); assay: Inhibition of human CYP2E1 in human liver microsomes by LC-MS/MS analysis; assay type: ADME, Microsome
Cytochrome P450 2C9 = Cytochrome P450 2C9 (Homo sapiens, UniProt P11712); assay: Inhibition of human CYP2C9 in human liver microsomes by LC-MS/MS analysis; assay type: ADME, Microsome
Cytochrome P450 1A2 [7] = molecular target: T3, Cytochrome P450 1A2; assay: Inhibition of human CYP1A2 in human liver microsomes by LC-MS/MS analysis; assay type: ADME, Microsome
Cytochrome P450 2D6 = Cytochrome P450 2D6 (Homo sapiens, UniProt P10635); assay: Inhibition of human CYP2D6 in human liver microsomes by LC-MS/MS analysis; assay type: ADME, Microsome
Cytochrome P450 1A1 = molecular target: T6, Cytochrome P450 1A1 (Homo sapiens, UniProt P04798); assay: Inhibition of human recombinant CYP1A1 assessed as fluorescence of resorufin; assay type: ADME
T6 sequence (P04798 whole entry): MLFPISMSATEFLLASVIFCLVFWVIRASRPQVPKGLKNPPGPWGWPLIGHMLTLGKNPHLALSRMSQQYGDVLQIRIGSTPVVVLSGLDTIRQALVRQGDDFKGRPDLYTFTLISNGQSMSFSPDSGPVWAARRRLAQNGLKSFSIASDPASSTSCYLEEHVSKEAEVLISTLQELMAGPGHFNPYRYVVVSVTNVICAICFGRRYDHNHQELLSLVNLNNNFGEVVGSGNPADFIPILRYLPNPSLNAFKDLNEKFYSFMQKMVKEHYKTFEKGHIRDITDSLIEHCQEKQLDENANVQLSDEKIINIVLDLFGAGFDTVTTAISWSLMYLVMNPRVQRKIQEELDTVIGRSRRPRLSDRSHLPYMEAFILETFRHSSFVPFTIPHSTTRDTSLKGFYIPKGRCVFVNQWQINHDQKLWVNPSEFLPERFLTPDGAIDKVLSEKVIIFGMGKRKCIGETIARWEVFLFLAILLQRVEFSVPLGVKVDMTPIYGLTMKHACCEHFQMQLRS

Cytochrome P450 1B1 [8] = molecular target: T1, Cytochrome P450 1B1; assay: Inhibition of human CYP1B1 overexpressed in CHO cells assessed as intracellular protein inhibition measured at 10 to 100 uM after 3 hrs; assay type: cell-based; conditions: dose 10-100 µM

Chain of Cytochrome P450 2D6 (P10635 whole entry): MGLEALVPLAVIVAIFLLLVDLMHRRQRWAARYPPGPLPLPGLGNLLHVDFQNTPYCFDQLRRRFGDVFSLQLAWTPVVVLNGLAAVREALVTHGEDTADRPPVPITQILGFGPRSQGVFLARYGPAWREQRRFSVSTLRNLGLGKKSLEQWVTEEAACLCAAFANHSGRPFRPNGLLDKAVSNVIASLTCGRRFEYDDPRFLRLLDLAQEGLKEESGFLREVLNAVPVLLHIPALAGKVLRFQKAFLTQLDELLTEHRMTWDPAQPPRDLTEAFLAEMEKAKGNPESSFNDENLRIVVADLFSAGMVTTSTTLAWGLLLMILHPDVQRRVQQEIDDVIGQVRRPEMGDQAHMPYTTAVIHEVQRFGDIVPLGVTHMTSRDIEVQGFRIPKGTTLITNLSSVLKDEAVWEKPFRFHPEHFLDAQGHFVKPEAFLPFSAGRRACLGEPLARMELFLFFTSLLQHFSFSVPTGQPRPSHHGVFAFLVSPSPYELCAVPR
Chain of Cytochrome P450 2C9 (P11712 whole entry): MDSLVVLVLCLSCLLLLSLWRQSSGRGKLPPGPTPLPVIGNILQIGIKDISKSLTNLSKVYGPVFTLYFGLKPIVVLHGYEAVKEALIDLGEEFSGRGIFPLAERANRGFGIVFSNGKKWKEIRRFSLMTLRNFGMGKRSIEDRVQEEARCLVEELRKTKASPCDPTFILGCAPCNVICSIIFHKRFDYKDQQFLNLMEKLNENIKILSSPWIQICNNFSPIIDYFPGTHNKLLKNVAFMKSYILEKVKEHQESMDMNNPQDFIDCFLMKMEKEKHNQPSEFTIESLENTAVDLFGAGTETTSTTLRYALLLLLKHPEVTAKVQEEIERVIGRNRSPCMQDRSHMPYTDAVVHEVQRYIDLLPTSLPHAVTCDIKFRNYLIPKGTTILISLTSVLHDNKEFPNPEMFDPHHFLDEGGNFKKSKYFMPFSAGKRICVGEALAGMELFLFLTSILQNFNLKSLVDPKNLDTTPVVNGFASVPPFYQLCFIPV
Chain of Cytochrome P450 2C19 (P33261 whole entry): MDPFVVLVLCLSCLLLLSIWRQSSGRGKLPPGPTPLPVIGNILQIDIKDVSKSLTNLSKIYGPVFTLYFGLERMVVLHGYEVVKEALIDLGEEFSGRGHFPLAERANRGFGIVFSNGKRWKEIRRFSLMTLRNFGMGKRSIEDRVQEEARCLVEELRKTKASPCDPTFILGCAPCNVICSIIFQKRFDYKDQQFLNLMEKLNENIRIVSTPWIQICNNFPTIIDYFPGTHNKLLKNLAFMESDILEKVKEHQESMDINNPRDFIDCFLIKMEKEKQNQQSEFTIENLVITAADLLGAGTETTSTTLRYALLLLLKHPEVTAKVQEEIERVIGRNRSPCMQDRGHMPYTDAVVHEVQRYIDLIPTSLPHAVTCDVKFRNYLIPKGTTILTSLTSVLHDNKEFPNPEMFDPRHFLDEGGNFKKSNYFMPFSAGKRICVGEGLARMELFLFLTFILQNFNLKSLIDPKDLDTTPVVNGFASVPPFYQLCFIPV
Chain of Cytochrome P450 3A4 (P08684 whole entry): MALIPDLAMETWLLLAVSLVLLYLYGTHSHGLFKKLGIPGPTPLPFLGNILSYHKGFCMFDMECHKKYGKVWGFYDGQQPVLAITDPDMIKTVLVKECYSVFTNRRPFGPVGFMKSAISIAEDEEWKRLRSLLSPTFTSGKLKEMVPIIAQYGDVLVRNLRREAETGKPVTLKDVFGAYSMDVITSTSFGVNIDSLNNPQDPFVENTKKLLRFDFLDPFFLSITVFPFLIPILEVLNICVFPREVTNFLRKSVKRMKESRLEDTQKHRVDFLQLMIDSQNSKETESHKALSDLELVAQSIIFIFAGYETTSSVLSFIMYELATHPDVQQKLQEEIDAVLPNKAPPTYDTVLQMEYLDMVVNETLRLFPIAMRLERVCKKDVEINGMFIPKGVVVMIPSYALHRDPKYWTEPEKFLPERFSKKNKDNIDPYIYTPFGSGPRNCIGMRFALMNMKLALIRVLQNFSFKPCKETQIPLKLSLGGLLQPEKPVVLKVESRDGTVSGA
Chain of Cytochrome P450 2E1 (P05181 whole entry): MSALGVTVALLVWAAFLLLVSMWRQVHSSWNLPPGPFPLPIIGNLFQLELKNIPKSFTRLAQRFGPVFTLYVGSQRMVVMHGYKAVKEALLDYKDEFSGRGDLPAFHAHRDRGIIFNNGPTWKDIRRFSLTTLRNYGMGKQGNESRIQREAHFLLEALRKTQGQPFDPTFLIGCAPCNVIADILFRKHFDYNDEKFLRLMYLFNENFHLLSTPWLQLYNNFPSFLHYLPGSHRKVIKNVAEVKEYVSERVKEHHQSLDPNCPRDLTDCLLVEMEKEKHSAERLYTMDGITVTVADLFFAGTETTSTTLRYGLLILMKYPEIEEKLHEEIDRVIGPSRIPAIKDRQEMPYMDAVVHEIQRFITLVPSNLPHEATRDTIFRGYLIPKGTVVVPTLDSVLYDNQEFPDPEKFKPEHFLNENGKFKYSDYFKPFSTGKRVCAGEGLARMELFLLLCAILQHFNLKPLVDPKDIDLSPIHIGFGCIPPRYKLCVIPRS

SMILES	IC50 (Cytochrome P450 1B1 [1]) [nM]	IC50 (Cytochrome P450 1A2 [3]) [nM]	also measured
CN(C)c1ccc(C(=O)/C=C/c2ccccc2)cc1	110	–	–
O=C(/C=C/c1ccccc1)c1ccc(Cl)cc1	43	–	–
O=C(/C=C/c1ccccc1)c1ccc([N+](=O)[O-])cc1	280	–	–
Cc1ccc(C(=O)/C=C/c2ccccc2)cc1	31	–	–
Nc1ccc(C(=O)/C=C/c2ccccc2)cc1	1060	–	–
O=C(/C=C/c1ccccc1)c1ccc(Br)cc1	36	–	–
COc1cc(O)c(Cl)cc1/C=C/C(=O)c1ccc(C(F)(F)F)cc1	–	> 100000	Activity [2]: Active
COc1cc(OC)c(/C=C/C(=O)c2ccc(C(F)(F)F)cc2)cc1Br	–	> 100000	–
CCOc1ccc(/C=C/C(=O)c2ccc(C(F)(F)F)cc2)cc1	–	> 100000	–
COc1ccc(/C=C/C(=O)c2ccc(C(F)(F)F)cc2)cc1	–	> 100000	–
Cc1ccc(/C=C/C(=O)c2ccc(C(F)(F)F)cc2)c(C)c1	–	> 100000	–
COc1cc(OC)c(/C=C/C(=O)c2ccc(C(F)(F)F)cc2)cc1Cl	–	> 100000	half-life [4]: 64.5 min; IC50 (Cytochrome P450 2A6): > 100000 nM; Activity [5]: Active; IC50 (Cytochrome P450 2C19): > 100000 nM; remaining at 1 h [6]: 54.5%; IC50 (Cytochrome P450 2C8): > 100000 nM; IC50 (Cytochrome P450 3A4): > 100000 nM; IC50 (Cytochrome P450 2E1): > 100000 nM; IC50 (Cytochrome P450 2C9): > 100000 nM; IC50 (Cytochrome P450 1A2 [7]): > 100000 nM; IC50 (Cytochrome P450 2D6): > 100000 nM
CCCOc1ccc(/C=C/C(=O)c2ccc(C(F)(F)F)cc2)c(OC)c1	–	> 100000	–
COc1cc(O)c(Br)cc1/C=C/C(=O)c1ccc(C(F)(F)F)cc1	–	> 100000	–
COc1cc(OC(C)=O)ccc1/C=C/C(=O)c1ccc(C(F)(F)F)cc1	–	> 100000	–
COc1cc(OC(=O)c2cccs2)ccc1/C=C/C(=O)c1ccc(C(F)(F)F)cc1	–	> 100000	–
O=C(/C=C/c1ccc(F)cc1)c1ccc(C(F)(F)F)cc1	–	> 100000	–
Cc1ccc(/C=C/C(=O)c2ccc(C(F)(F)F)cc2)cc1	–	> 100000	–
CCOc1ccc(/C=C/C(=O)c2ccc(C(F)(F)F)cc2)c(OC)c1	–	> 100000	Activity [2]: Active
COc1cc(O)ccc1/C=C/C(=O)c1ccc(C(F)(F)F)cc1	–	> 100000	half-life [4]: 35.6 min; Activity [2]: Active; remaining at 1 h [6]: 21%
O=C(/C=C/c1ccc(O)cc1)c1ccc(C(F)(F)F)cc1	–	> 100000	–
O=C(/C=C/c1ccc(F)cc1F)c1ccc(C(F)(F)F)cc1	–	> 100000	–
CCCOc1ccc(/C=C/C(=O)c2ccc(C(F)(F)F)cc2)cc1	–	> 100000	–
O=C(/C=C/c1ccccc1)c1ccc(C(F)(F)F)cc1	26.2	> 100000	IC50 (Cytochrome P450 1A1): 274 nM
COc1ccc(/C=C/C(=O)c2ccc(C(F)(F)F)cc2)c(OC)c1	4.72	> 100000	half-life [4]: 28.9 min; Activity [5]: Active; remaining at 1 h [6]: 11.8%; IC50 (Cytochrome P450 1A1): 1690 nM
O=C(/C=C/c1ccccc1)c1ccc(O)cc1 [4'-HYDROXYCHALCONE]	1130	–	–
COc1ccc(C(=O)/C=C/c2ccccc2)cc1 [4'-METHOXYCHALCONE]	180	–	–
O=c1cc(-c2ccccc2)oc2c1ccc1ccccc12 [ALPHA-NAPHTHOFLAVONE]	–	–	inhibition (INH) (Cytochrome P450 1B1 [8]): Dose-Dependent Effect; IC50 (Cytochrome P450 1A1): 7.41 nM
O=C(/C=C/c1ccccc1)c1ccccc1 [CHALCONE]	305	–	–
C[C@]12CC[C@H]3[C@@H](CCC4=CC(=O)CC[C@@]43C)[C@@H]1CC[C@@H]2O [TESTOSTERONE]	–	–	half-life [4]: 58.2 min; remaining at 1 h [6]: 43.7%
